Results on four compounds are retold here after patent US12128037B2 (priority 2017, dated 2024).

Each structure is given as a SMILES string. Values after ≈ are worked out from the molar mass of the structure shown. Values joined by “and” are separate entries in the source; they are usually repeats but may differ in a detail not shown here. Identical values can stand only once. Like-named read-outs stand apart in the source and are kept apart here.

Data set [1] in a line: Gravimetric vapour sorption (GVS), hygroscopicity. Format: physicochemical. To be noted: 25° C. The procedure:
Gravimetric vapour sorption (GVS) was used to determine the hygrocopicity of the samples: experiments were performed at 25° C. using a DVS 1 instrument from SMS Ltd to record adsorption-desorption isotherms using different methods, the main features being: a single sorption/desorption cycle from 0 to 80% RH in 10% RH steps with a dm/dt trigger value of 0.002% (dm/dt=change in mass with time—when the balance stability is within this value the next step is automatically started, however, if those conditions are not achieved there is a default maximum time for each step of 6 hours). The sample amount used was 1-3 mg.

Details of data set [2]: species or system male Wistar (Hannover) rats. To be noted: rat, in vivo, iv. The protocol:
(§1) In accordance with Swedish legislations for preclinical in vivo studies in rodents and following evaluation and approval of the experimental procedures the local ethical committee (M388-12), following acclimatization to the housing conditions for a minimum of 7 days after arrival, male Wistar (Hannover) rats (Taconic, Denmark), average weight 180-200 g; average age 8-10 weeks, were treated with test items (see Table 2); 12-16 h prior to dosing all food except for an amount equivalent to a half day consumption was removed. The test items were administrated using a soft gavage tube (p.o.) or by injecting the test item in the tail vein (i.v). The volume given was 10 mL/kg (p.o.) or 1 mL/kg (i.v.). Before i.v administration the rats were anesthetized using isoflurane. The rats were conscious during sample collection and the blood was taken from the sub-lingual vein. Blood samples were collected from each rat over a period of up to 24 h. At each time point two aliquots of 50 μL each was added to a vial containing 150 μL of sterile water. The samples were mixed immediately and stored in −18° C. until preparation for bioanalysis commenced. All formulations were prepared on the same day that dosing took place. The body weight of the rat was recorded before dosing. The weight of the syringe was recorded before and after administration to allow calculation of the actual amount of test sample delivered. The actual doses were used during the evaluation of the data.
(§2) The plasma levels of sulfasalazine were determined using LCMS/MS in mrm (multiple reaction monitoring) mode.
Samples and standards were injected by a HTC PAL from CTC analytics into an LC system from Shimadzu consisting of a high pressure gradient system of two LC-10 AD pumps controlled by a SCL-10A controller from Shimadzu. The samples were separated using reverse-phase chromatography with gradient elution at a flow rate of 0.8 mL/min. Mobile phases were A:94.9/5/0.1 water/acetonitrile/formic acid and B:[…] water/acetonitrile/formic acid. Gradient started at 0% B and increased linearly to 100% B in 4 minutes, 100% B was kept for 0.5 minutes and then the system returned to 0% B in 0.1 minutes. The system was equilibrated for 1.4 minutes until the total run time of 6 minutes. The eluent was analyzed by a Quattro Ultima from Micromass equipped with an electrospray ion source. Data was collected and calibrations were calculated by MassLynx 4.0 software. […] The eluent was ionized by negative ion electrospray and the mrm transition from 397 to 197 m/z was monitored. […]
Positive and negative mode MS/MS was employed for sulfasalazine. […] Samples with analyte concentrations above the upper limit of quantification were diluted with matrix to reach within the assay range. […]

Data set [3] can be described thus: Pharmacokinetics of sulfasalazine in rat, oral administration. To be noted: 60 mg/kg. Format: in vivo, male Wistar (Hannover) rats. The protocol:
as §1, §2
Samples and standards were injected by a HTC PAL from CTC analytics into an LC system from Shimadzu consisting of a high pressure gradient system of two LC-10 AD pumps controlled by a SCL-10A controller from Shimadzu. The samples were separated using reverse-phase chromatography with gradient elution at a flow rate of 0.8 mL/min. Mobile phases were A:94.9/5/0.1 water/acetonitrile/formic acid and B:[…] water/acetonitrile/formic acid. Gradient started at 0% B and increased linearly to 100% B in 4 minutes, 100% B was kept for 0.5 minutes and then the system returned to 0% B in 0.1 minutes. The system was equilibrated for 1.4 minutes until the total run time of 6 minutes. The eluent was analyzed by a Quattro Ultima from Micromass equipped with an electrospray ion source. Data was collected and calibrations were calculated by MassLynx 4.0 software. […] The eluent was ionized by negative ion electrospray and the mrm transition from 397 to 197 m/z was monitored.
The diluted blood sample (50 μL blood, 150 μL water) was thawed and mixed. 400 μL of Acetonitrile, to precipitate the protein was added and mixed again. The sample was centrifuged at 5,000 g for 5 minutes. 100 μL of the supernatant was transferred to a 300 μL glass vial and 100 μL of water was added to reduce the acetonitrile concentration.
Positive and negative mode MS/MS was employed for sulfasalazine. The concentration of the standard curve was in the range from 5 nM to 15625 nM. Samples with analyte concentrations above the upper limit of quantification were diluted with matrix to reach within the assay range. A non-compartmental analysis (NCA) was performed using the Phoenix WinNonLin analysis tool.

Data set [4] can be described thus: Solubility in water or FaSSIF-V2 medium (Example 8, HPLC). The protocol:
The mobile phase consists of mobile phase (A): 1.13 g sodium dihydrogen phosphate and 2.5 g sodium acetate are dissolved in 1000 mL purified water. The pH is afterwards adjusted with acetic acid (100%) to 4.8. and mobile phase (B): 1 part mobile phase A is mixed with 4 parts of methanol for chromatography. The flow rate was 1.0 mL/min, injection volume 5 μL and detection wavelengths 320 nm (HP DAD series 1100). Run time is 10 min. Quantitation was performed using external standard methodology. The assay method has been validated with respect to selectivity, repeatability and linearity. Samples are prepared with dilute ammonia R3 PhEur.
The saturated solutions were filtrated using centrifuge filters (Nylon, […]) and the clear supernatants were respectively injected either directly or after dilution with dilute ammonia R3 PhEur.

Data set [5] in a line: Transport across Caco 2 cell monolayer. Conditions: human, direction ab (apical to basal), 180 min incubation. Format: in vitro ADME.
For data set [6] the following is noted: cited from earlier work.
The conditions of data set [7]: cited from earlier work. The source holds these as a separate data set.
Data set [8] has as its system binding of TNF-alpha to its receptor. To be noted: 125I-TNF-alpha displacement; cited from earlier work.
Data set [9] can be described thus: Solubility in de-ionized water (HPLC). Conditions: 24 °C, thermodynamic from solid.
Description: The flow rate was 1.0 mL/min, injection volume 5 μL and detection wavelengths 358 nm (for assay) and 260 nm (for chromatographic purity). Quantitation was performed using external standard methodology. The assay method has been validated with respect to selectivity, repeatability and linearity.
The mark [10] stands for this setting: male, Wistar (Hannover), whole blood.

The Solubility is the dissolved amount per volume that the medium holds. Read a high Solubility as much dissolved substance. Usually Papp A→B stands for how fast a substance crosses the layer from the apical side. Usually Cmax stands for the peak of the concentration-time curve. Broadly, the Tmax is the time from dosing to the highest level. As a reminder, the half-life is the time in which the quantity being followed falls by half. In general, solubility refers to the concentration that dissolves in the medium under given conditions.

Regarding `CCNCC.O=C(O)c1cc(N=Nc2ccc(S(=O)(=O)Nc3ccccn3)cc2)ccc1O` [Form A diethylamine salt, Diethylamine 2-hydroxy-5-[2-[4-[(2-pyridinylamino)sulfonyl]phenyl]diazenyl]-benzoate], the “water vapor uptake (GVS)” value came to 0.3 % w/w in data set [1] (30% RH) and 0.5 % w/w in data set [1] (80% RH).
Consider `CNCC(O)C(O)C(O)C(O)CO.O=C(O)c1cc(N=Nc2ccc(S(=O)(=O)Nc3ccccn3)cc2)ccc1O` [Form A meglumine salt], for which the “water vapor uptake (GVS)” value in data set [1] (30% RH, listed as Example 1) was below 0.4 % w/w; in data set [1] (30% RH, listed as Example 2) it was 0.4 % w/w; in data set [1] (80% RH, listed as Example 1) it was below 0.9 % w/w; in [1] (80% RH, listed as Example 2), 1.1 % w/w. Besides, the values for the AUCinf obs in data set [2] (1 mg/kg) and in [2] (5 mg/kg) were 1,661 ± 191 h*nM and 11,889 ± 735 h*nM, respectively. In addition, the results for the T1/2 in data set [2] (1 mg/kg), in data set [2] (5 mg/kg) and in [3] (in vivo) were 1.2 h, 1.3 h and 1.9 ± 0.5 h, respectively. Moreover, the F in data set [3] (in vivo) came to 3.8%. Moreover, the Solubility in data set [4] (pH 6.8) is listed as 60.3 mg/mL.
Turning to `O=C(O)c1cc(/N=N/c2ccc(S(=O)(=O)Nc3ccccn3)cc2)ccc1O` [sulfasalazine, 2-hydroxy-5-[2-[4-[(2-pyridinylamino)sulfonyl]phenyl]diazenyl]-benzoic acid], in data set [5] (50 μg/mL), the Papp A→B at 180 min, 50 μg/mL is 1.39 ×10⁻⁶ cm/s. The apical-to-basolateral permeability (Papp A→B) at 180 min, 200 μg/mL in [5] (200 μg/mL) is 1.16 ×10⁻⁶ cm/s. Further, the F in data set [3] (male, Wistar (Hannover), in vivo) stood at 2.5%. In data set [3] (setting [10]), this compound returned a peak concentration (Cmax) of 700 ± 110 nM. The Tmax in data set [3] (setting [10]) came to 43.2 ± 34.2 min. In addition, the AUC in [3] (male, Wistar (Hannover), whole blood, p.o., read-out: AUC0.1, 5 h obs) was 0.81 ± 0.13 µM·h; in data set [3] (male, Wistar (Hannover), whole blood, p.o., read-out: AUCall), 2.81 ± 0.41 µM·h. Besides, the half-life in data set [3] (male, Wistar (Hannover), whole blood, p.o.) was 120 ± 30 min; in data set [7] (intravenously administered), “approximately 7.6±3.6 hours”. The Solubility in data set [4] (FaSSIF-V2, room temperature (20-25° C.), saturated solution) was found to be 0.78 mg/mL (≈ 1960 µM); in [9] it was 60 µg/mL (≈ 151 µM). The solubility at 24 h in [4] (water, pH 5.9, water, thermodynamic from solid) was 60 µg/mL (≈ 151 µM). Also, in [6] (USP classification), the “solubility, United States Pharmacopoeia class practically insoluble” value is on record as below 0.1 mg/mL. In addition, the “solubility in de-ionized water” value in data set [6] (de-ionized water at 24° C., literature value) was 0.03 mg/mL and 0.031 mg/mL. In addition, the solubility in water entry in data set [6] (water) was “less than 5 mg/100 ml”. The “time of median peak concentration” value in data set [7] (man, oral) is 6 h. Also, the “binding of TNF-alpha to its receptor” value in [8] is listed as “inhibits”.
On to `Nc1ccc(S(=O)(=O)Nc2ccccn2)cc1` [sulfapyridine], for which the systemic bioavailability result in data set [7] (metabolite formed from non-absorbed sulfasalazine by gut flora) was “about 60%”.
